Measured values published in article PMC3718800, “Structural and Functional Perturbation of Giardia lamblia Triosephosphate Isomerase by Modification of a Non-Catalytic, Non-Conserved Region” (PLoS ONE, 2013).
Several values for one entry are separate records, joined by “and”; a condition that tells them apart may be missing. Identical values can stand only once.

Assays:
[1] = system: yeast TIM, tyrosine by phenylalanine in the YGGS motif; design: method as in PMID 1390632; settings: mutant vs wild type yeast TIM; cited from earlier work
[2] = system: yeast TIM, serine replaced by alanine in the YGGS motif; design: method as in PMID 1390632; settings: mutant vs wild type yeast TIM; cited from earlier work
C222D GlTIM [3] = target: T1, C222D GlTIM (Giardia intestinalis, UniProt P36186, C222D); test: Competitive inhibition of TIM activity by 2-PG (global fit); format: biochemical, Giardia lamblia; settings: 2-PG vs C222D
T1 construct: made in house; host or cells: E. coli BL21(DE3)pLys
T1 sequence (P36186 whole entry C222D): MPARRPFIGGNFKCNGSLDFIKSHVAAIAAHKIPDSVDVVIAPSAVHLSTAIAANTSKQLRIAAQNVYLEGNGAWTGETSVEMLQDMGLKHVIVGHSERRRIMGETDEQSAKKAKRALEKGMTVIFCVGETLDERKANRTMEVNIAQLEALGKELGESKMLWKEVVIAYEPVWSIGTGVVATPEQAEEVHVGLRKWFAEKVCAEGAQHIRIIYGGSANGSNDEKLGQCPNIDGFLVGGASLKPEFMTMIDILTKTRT
Protocol: (§1) Glyceraldehyde 3-phosphate (GAP), buffers, salts and all the other analytical grade reagents were acquired from Sigma–Aldrich; α-glycerol-3-phosphate dehydrogenase (α-GDH) was from Roche, crystallization screen kits were obtained from Hampton Research. Restriction enzymes, DNA polymerase and T4 DNA ligase were purchased from New England BioLabs and Invitrogene. Oligonucleotide synthesis and DNA sequencing was performed at the Unidad de Biología Molecular, Instituto de Fisiología Celular, UNAM. Protein concentration was determined by the bicinchoninic acid method or by absorbance at 280 nm for pure GlTIM (ε280 = 26600 M^-1cm^-1). The TIM activity was determined at 25°C by a coupled assay, following the decrease in absorbance at 340 nm. The standard reaction mixture contained 100 mM triethanolamine/10 mM EDTA, pH 7.4 (TE buffer), 1 mM GAP, 0.2 mM NADH, and 0.9 units of α-GDH (20 μg/mL); the reaction was initiated by addition of 5 ng/mL of WT, C222V or C222M GlTIM, 10 ng/mL of C222N, 20 ng/mL of C222D or C222F, and 200 ng/mL of C222K. Kinetic, binding and stability data were analyzed by non-linear regression calculations with Origin software.
(§2) Determination of Km and Vmax was performed by fitting initial velocity data at GAP concentrations ranging from 0.3 to 3 mM to the Michaelis-Menten equation (v = Vmax•S/Km+S) by non-linear regression calculations. The kcat was derived from Vmax by considering a molecular mass for the monomer of 27.7 kDa. The Ki for 2-phosphoglycolate (2-PG) was calculated by global fit of initial velocity curves (GAP from 0.3 to 3 mM) obtained at different fixed concentrations of the inhibitor. Prior to fitting collectively the data to the simple competitive inhibition equation (v = Vmax•S/Km(1+I/Ki)+S), individual data were plotted as double reciprocal plots to confirm competitive inhibition.

C222F GlTIM [4] = target: T2, C222F GlTIM (Giardia intestinalis, UniProt P36186, C222F); test: as above; format: biochemical, Giardia lamblia; settings: 2-PG vs C222F
T2 construct: made in house; host or cells: E. coli BL21(DE3)pLys
T2 sequence (P36186 whole entry C222F): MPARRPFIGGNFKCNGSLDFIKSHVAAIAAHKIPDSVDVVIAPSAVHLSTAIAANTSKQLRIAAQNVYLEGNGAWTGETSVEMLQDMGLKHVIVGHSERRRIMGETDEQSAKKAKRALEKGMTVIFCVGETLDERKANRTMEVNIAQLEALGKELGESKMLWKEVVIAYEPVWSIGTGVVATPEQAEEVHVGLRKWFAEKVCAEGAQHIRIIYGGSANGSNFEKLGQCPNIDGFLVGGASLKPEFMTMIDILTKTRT
Protocol: as §1, §2

C222K GlTIM [5] = target: T3, C222K GlTIM (Giardia intestinalis, UniProt P36186, C222K); test: as above; format: biochemical, Giardia lamblia; settings: highest concentrations of 2-PG that could be assayed
T3 construct: made in house; host or cells: E. coli BL21(DE3)pLys
T3 sequence (P36186 whole entry C222K): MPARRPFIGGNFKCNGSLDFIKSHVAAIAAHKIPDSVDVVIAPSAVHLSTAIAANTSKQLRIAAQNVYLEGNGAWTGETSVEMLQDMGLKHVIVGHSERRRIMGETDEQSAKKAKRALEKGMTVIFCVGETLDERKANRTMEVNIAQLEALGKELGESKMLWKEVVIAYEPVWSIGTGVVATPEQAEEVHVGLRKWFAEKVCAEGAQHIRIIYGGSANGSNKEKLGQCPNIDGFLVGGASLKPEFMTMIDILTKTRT
Protocol: as §1, §2

C222M GlTIM [6] = target: T4, C222M GlTIM (Giardia intestinalis, UniProt P36186, C222M); test: as above; format: biochemical, Giardia lamblia
T4 construct: made in house; host or cells: E. coli BL21(DE3)pLys
T4 sequence (P36186 whole entry C222M): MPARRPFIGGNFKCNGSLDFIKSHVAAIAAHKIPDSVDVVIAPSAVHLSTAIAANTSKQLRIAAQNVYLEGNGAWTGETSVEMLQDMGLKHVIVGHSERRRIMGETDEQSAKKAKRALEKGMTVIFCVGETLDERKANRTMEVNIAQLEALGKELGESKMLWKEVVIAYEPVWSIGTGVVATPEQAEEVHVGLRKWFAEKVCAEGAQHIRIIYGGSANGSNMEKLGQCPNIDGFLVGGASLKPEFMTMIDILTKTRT
Protocol: as §1, §2

C222N GlTIM [7] = target: T5, C222N GlTIM (Giardia intestinalis, UniProt P36186, C222N); test: as above; format: biochemical, Giardia lamblia
T5 construct: made in house; host or cells: E. coli BL21(DE3)pLys
T5 sequence (P36186 whole entry C222N): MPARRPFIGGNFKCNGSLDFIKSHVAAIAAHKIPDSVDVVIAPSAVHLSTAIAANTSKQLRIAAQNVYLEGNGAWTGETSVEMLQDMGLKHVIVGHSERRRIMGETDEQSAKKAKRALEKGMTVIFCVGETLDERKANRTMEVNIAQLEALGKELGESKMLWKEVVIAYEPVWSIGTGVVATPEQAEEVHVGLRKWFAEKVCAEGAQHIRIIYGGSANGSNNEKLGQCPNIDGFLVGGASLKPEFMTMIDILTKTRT
Protocol: as §1, §2

C222V GlTIM [8] = target: T6, C222V GlTIM (Giardia intestinalis, UniProt P36186, C222V); test: as above; format: biochemical, Giardia lamblia
T6 construct: made in house; host or cells: E. coli BL21(DE3)pLys
T6 sequence (P36186 whole entry C222V): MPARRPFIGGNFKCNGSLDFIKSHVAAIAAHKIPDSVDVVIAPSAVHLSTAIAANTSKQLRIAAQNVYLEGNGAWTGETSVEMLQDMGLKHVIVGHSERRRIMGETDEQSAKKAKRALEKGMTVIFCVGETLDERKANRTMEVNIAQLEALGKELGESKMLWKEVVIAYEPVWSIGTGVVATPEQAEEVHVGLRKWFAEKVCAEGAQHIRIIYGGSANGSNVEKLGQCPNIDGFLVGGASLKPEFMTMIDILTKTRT
Protocol: as §1, §2

WT GlTIM [9] = target: T7, WT GlTIM (Giardia intestinalis, UniProt P36186); test: as above; format: biochemical, Giardia lamblia; settings: 2-PG vs WT GlTIM
T7 construct: made in house; host or cells: E. coli BL21(DE3)pLys
T7 sequence (P36186 whole entry): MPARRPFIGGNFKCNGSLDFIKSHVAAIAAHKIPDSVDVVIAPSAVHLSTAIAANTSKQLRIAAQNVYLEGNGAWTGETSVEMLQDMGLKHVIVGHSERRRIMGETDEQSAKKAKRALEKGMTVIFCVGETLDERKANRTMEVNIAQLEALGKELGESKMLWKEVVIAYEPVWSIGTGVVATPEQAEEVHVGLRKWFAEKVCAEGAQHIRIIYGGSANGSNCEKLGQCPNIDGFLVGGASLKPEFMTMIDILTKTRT
Protocol: as §1, §2

C222D GlTIM [10] = target: T1, C222D GlTIM; test: Binding of 2-PG by change in intrinsic fluorescence; design: species or system Giardia lamblia
Protocol: (§3) The change in the intrinsic fluorescence of GlTIM in response to the addition of the transition state analog 2-PG was used to determine the affinity of the enzyme for this ligand, as previously reported. Intrinsic fluorescence spectra were collected before and after each addition of 1 or 2 μL aliquots of a 3 or 30 mM stock solution of 2-PG. The final volume added to the fluorescence cell was always less than 5% of the total volume; there was no effect on the absorbance of the protein solution at 280 nm at the highest 2-PG concentration assayed. In all cases, the spectra of samples without protein were subtracted from those that contained the enzyme. For each mutant, the maximal fluorescence intensity at 332 nm, for every 2-PG concentration, was plotted and fitted to y = (α/2Et)(Et+x+Kd) - √ (Et+x+Kd)^2– (4xEt), where y = 1 - (Fi/F) (Fi, initial fluorescence; F, fluorescence intensity at each 2-PG concentration); α is the maximal fluorescence change attained at saturating concentration of the ligand, Et represents the concentration of binding sites, Kd is the equilibrium dissociation constant and x is the concentration of 2-PG [21], [23].

C222F GlTIM [11] = target: T2, C222F GlTIM; test: as above; design: species or system Giardia lamblia
Protocol: as §3

C222K GlTIM [12] = target: T3, C222K GlTIM; test: as above; design: species or system Giardia lamblia
Protocol: as §3

C222M GlTIM [13] = target: T4, C222M GlTIM; test: as above; design: species or system Giardia lamblia
Protocol: as §3

C222N GlTIM [14] = target: T5, C222N GlTIM; test: as above; design: species or system Giardia lamblia
Protocol: as §3

C222V GlTIM [15] = target: T6, C222V GlTIM; test: as above; design: species or system Giardia lamblia
Protocol: as §3

WT GlTIM [16] = target: T7, WT GlTIM; test: as above; design: species or system Giardia lamblia; settings: 2-PG vs WT GlTIM, fluorescence at 332 nm
Protocol: as §3

GlTIM = settings: cited from earlier work

O=C(COP(=O)(O)O)NO [PGH, phosphoglycolohydroxamate]
increase in the Kd [1]: 200 fold | change of affinity [2]: 5 fold

O=C(O)COP(=O)(O)O [2-PG, 2-phosphoglycolate]
Ki (C222D GlTIM [3]): 1480 ± 168 µM | Ki (C222F GlTIM [4]): 7280 ± 2010 µM | inhibition by 2-PG (C222K GlTIM [5]): only minimal inhibition was observed | Ki (C222M GlTIM [6]; 2-PG vs C222M, competitive): 325 ± 50 µM | Ki MUT/Ki WT ratio (C222M GlTIM [6]; C222M vs WT): 3.7 and 3.74 | Ki (C222N GlTIM [7]; 2-PG vs C222N, competitive): 560 ± 59 µM | Ki MUT/Ki WT ratio (C222N GlTIM [7]; C222N vs WT): 6.4 and 6.44 | Ki (C222V GlTIM [8]; 2-PG vs C222V, competitive): 98 ± 10 µM | Ki MUT/Ki WT ratio (C222V GlTIM [8]; C222V vs WT): 1.13 | Ki (WT GlTIM [9]): 87 ± 15 µM | changes in fluorescence induced by 2-PG (C222D GlTIM [10]): minimal | changes in fluorescence induced by 2-PG (C222F GlTIM [11]): minimal | changes in fluorescence induced by 2-PG (C222K GlTIM [12]): minimal | Kd (C222M GlTIM [13]; 2-PG vs C222M, fluorescence at 332 nm): 79.4 ± 8.5 µM | Kd MUT/Kd WT ratio (C222M GlTIM [13]; C222M vs WT): 3.01 | Kd (C222N GlTIM [14]; 2-PG vs C222N, fluorescence at 332 nm): 113 ± 41.7 µM | Kd MUT/Kd WT ratio (C222N GlTIM [14]; C222N vs WT): 4.29 | Kd (C222V GlTIM [15]; 2-PG vs C222V, fluorescence at 332 nm): 57.4 ± 7.1 µM | Kd MUT/Kd WT ratio (C222V GlTIM [15]; C222V vs WT): 2.17 | Kd (WT GlTIM [16]): 26.4 ± 2.6 µM

O=C(O)c1cc(SSc2ccc([N+](=O)[O-])c(C(=O)O)c2)ccc1[N+](=O)[O-] [DTNB, 5,5′-dithio-bis (2-nitrobenzoic acid)]
catalytic activity of GlTIM after derivatization of C222 (GlTIM): completely abolished | inactivation of GlTIM (GlTIM): total inactivation

CSS(C)(=O)=O [MMTS, methylmethane thiosulfonate]
catalytic activity of GlTIM after derivatization of C222 (GlTIM): reduced the catalytic activity of GlTIM by half | decrease of the kcat/Km ratio after modification of C222 (GlTIM): three-fold decrease
